Measured values as given in PubChem BioAssay AID2060900 (Molecular Pharmacology Branch, DTP, NCI, 2025).

System: 521955-158-R2-J5-PDC complex spheroids, viability
Assay: Anticancer human tumor 521955-158-R2-J5-PDC patient-derived pancreatic carcinoma cell line growth inhibition [RAS]
Details: for IC50: curve of first compound; for viability, T/C: stronger effect = lower value
Text: RAS pathway inhibitors in Combinations in Complex Spheroids
A high-throughput screen of multi-cell type tumor spheroids was designed to identify active combinations of RAS pathway inhibitors and targeted small molecules. Complex spheroids include a stromal component modeled by human endothelial cells (HUVEC) and fibroblasts modeled by human mesenchymal stem cells (MSCs). The concentration ranges selected for each drug and investigational agent were based upon clinically achievable concentrations if the clinical Cmax of the agent was known.
Compounds. The drugs and investigational agents: abemaciclib (NSC768073), cobimetinib (NSC768068), divarasib (GDC6063, NSC841802), docetaxel (NSC628503), GDC-1971 (RLY-1971, NSC841576), gemcitabine (NSC613327), inavolisib (NSC800729), ipatasertib (NSC767898), KB-0742 (NSC834161), MRTX-1133 (NSC836407), osimertinib (NSC779217), RMC-4630 (NSC839698), RMC-6236 (NSC851965), RMC-6291 (NSC852671), Ro-3306 (NSC812927), sapanisertib (NSC764658), SN-38 (NSC673596), staurosporine (NSC755774), SY5609 (NSC837396), and tovorafenib (DAY101, NSC766906), were obtained from the National Cancer Institute (NCI) Developmental Therapeutics Program Chemical Repository. The FDA-approved anticancer drug set is available from the NCI Developmental Therapeutics Program. […] The stock solutions were prepared in dimethyl sulfoxide (DMSO, Sigma-Aldrich, St. Louis, MO, cat. D2650) at 800-fold the tested concentration and stored at -70 degrees C prior to their use. All drugs and investigational agents were tested over a range starting from a high concentration at or near the clinical Cmax and decreasing in half-log increments. If the clinical Cmax for an agent had not been determined, the highest concentration tested was 10 microM.
Cell Culture. All cells were maintained in an incubator at 37 degrees C and 5% CO2 with 95% humidity. The PDC lines were cultured according to standard operating procedures established by the NCI PDMR. All PDCs were thawed and cultured in Matrigel-coated flasks prepared with a working solution of 1X Ham's F-12 nutrient mix, without supplementation (Invitrogen, Waltham, MA, cat. 11765054), 100 U/mL penicillin-streptomycin (Invitrogen, cat. 15140122), and 2.5% Matrigel (Corning Inc., Corning, NY, cat. 354248) for the first three passages. The 362531-283-R-J2-PDC and 782815-120-R-J1-PDC lines were cultured in 6C/Colon 1B media, which includes advanced DMEM/F-12 (Thermo Fisher Scientific, cat. 12634028), 10 mM HEPES (Thermo Fisher Scientific, cat. 15630080), 1X GlutaMAX supplement (Thermo Fisher Scientific, cat. 35050061), 0.1 mg/mL primocin (InvivoGen, San Diego, CA, cat. ant-pm-2), 10% defined fetal bovine serum, heat inactivated (HyClone Laboratories Inc., Logan, UT, cat. SH30070.03HI), 50% L-WRN conditioned media (ATCC, cat. CRL-3276), 1.25 mM N-Acetyl-L-cysteine (Sigma-Aldrich, cat. A9165), 10 mM nicotinamide (Sigma-Aldrich, cat. N0636), 1X B-27 supplement (Thermo Fisher Scientific, cat. 17504044), 1X N-2 supplement (Thermo Fisher Scientific, cat. 17502048), 50 ng/mL human EGF (Thermo Fisher Scientific, cat. PHG0311), and 10 microM Y-27632 dihydrochloride (Tocris Bioscience, cat. 1254). The K12877-001-R-J1-PDC line was cultured in 6I media, which includes all 6C/Colon 1B media plus 10 ng/mL human FGF-10 (PeproTech, cat. 100-26), 1 ng/mL human FGF-2 (PeproTech, cat. 100-18B), 1 µM prostaglandin E2 (Tocris Bioscience, cat. 2296), […] hydrocortisone (Sigma-Aldrich, cat. H4001), and […] bovine insulin (Sigma-Aldrich, cat. I6634). The K86415-001-R-J1-PDC line was cultured in 6D media, which includes all 6C/Colon 1B media components minus the L-WRN conditioned media. The 485176-168-R4-J1-PDC was cultured in PANC media, which includes all 6C/Colon 1B media plus 100 ng/mL human FGF-10 (PeproTech, cat. 100-26), 500 nM SB-431542 (Selleckchem, cat. S1067), and 10 nM gastrin (Tocris Bioscience, cat. 3006). […]
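Also: compound exposure lasted seven days before the viability read.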
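For viability, T/C in this document: spheroids also contain HUVEC endothelial cells and mesenchymal stem cells as stroma.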

For `CCc1c2c(nc3ccc(O)cc13)-c1cc3c(c(=O)n1C2)COC(=O)[C@]3(O)CC` + CCn1c(-c2cccnc2C(C)OC)c2c3cc(ccc31)N1CCOC(CC(NC(=O)C(C(C)C)N(C)C(=O)C3(F)CCN(C(=O)C#CC(C)(C)N(C)C)CC3)C(=O)N3CCCC(N3)C(=O)OCC(C)(C)C2)C1, the IC50 (second compound 0.000949 µM) was 2.25 nM, the IC50 (second compound 0.003 µM) was 2.41 nM and the IC50 (second compound 0.00949 µM) was 2.52 nM. For the same compound, the IC50 (second compound 0.03 µM) was 2.53 nM, the IC50 (second compound 0.0949 µM) was 2.64 nM and the IC50 (second compound 0.3 µM) was 1.7 nM. For the same compound, the viability, T/C (second compound 0.000949 µM, first compound 0.000949 µM) was 97.8%, the viability, T/C (second compound 0.000949 µM, first compound 0.003 µM) was 34.1% and the viability, T/C (second compound 0.000949 µM, first compound 0.00949 µM) was 12.3%. For the same compound, the viability, T/C (second compound 0.000949 µM, first compound 0.03 µM) was 5.82%, the viability, T/C (second compound 0.000949 µM, first compound 0.0949 µM) was 6.17% and the viability, T/C (second compound 0.000949 µM, first compound 0.3 µM) was 6.87%. For the same compound, the viability, T/C (second compound 0.003 µM, first compound 0.000949 µM) was 92.6%, the viability, T/C (second compound 0.003 µM, first compound 0.003 µM) was 39.6% and the viability, T/C (second compound 0.003 µM, first compound 0.00949 µM) was 16.9%. The viability, T/C (second compound 0.003 µM, first compound 0.03 µM) was 5.84%, the viability, T/C (second compound 0.003 µM, first compound 0.0949 µM) was 4.8% and the viability, T/C (second compound 0.003 µM, first compound 0.3 µM) was 7.45%. It also gave a viability, T/C (second compound 0.00949 µM, first compound 0.000949 µM) of 104%, a viability, T/C (second compound 0.00949 µM, first compound 0.003 µM) of 40.5% and a viability, T/C (second compound 0.00949 µM, first compound 0.00949 µM) of 14.4%. It also gave a viability, T/C (second compound 0.00949 µM, first compound 0.03 µM) of 8.96%, a viability, T/C (second compound 0.00949 µM, first compound 0.0949 µM) of 6.33% and a viability, T/C (second compound 0.00949 µM, first compound 0.3 µM) of 7.48%. It also gave a viability, T/C (second compound 0.03 µM, first compound 0.000949 µM) of 72.7%, a viability, T/C (second compound 0.03 µM, first compound 0.003 µM) of 46.1% and a viability, T/C (second compound 0.03 µM, first compound 0.00949 µM) of 11.3%. The viability, T/C (second compound 0.03 µM, first compound 0.03 µM) was 10%, the viability, T/C (second compound 0.03 µM, first compound 0.0949 µM) was 5.57% and the viability, T/C (second compound 0.03 µM, first compound 0.3 µM) was 7.99%. The viability, T/C (second compound 0.0949 µM, first compound 0.000949 µM) was 101%, the viability, T/C (second compound 0.0949 µM, first compound 0.003 µM) was 43.5% and the viability, T/C (second compound 0.0949 µM, first compound 0.00949 µM) was 12.7%. For the same compound, the viability, T/C (second compound 0.0949 µM, first compound 0.03 µM) was 4.87%, the viability, T/C (second compound 0.0949 µM, first compound 0.0949 µM) was 7.25% and the viability, T/C (second compound 0.0949 µM, first compound 0.3 µM) was 6.81%. The viability, T/C (second compound 0.3 µM, first compound 0.000949 µM) was 66%, the viability, T/C (second compound 0.3 µM, first compound 0.003 µM) was 34.3% and the viability, T/C (second compound 0.3 µM, first compound 0.00949 µM) was 10%. For the same compound, the viability, T/C (second compound 0.3 µM, first compound 0.03 µM) was 5.73%, the viability, T/C (second compound 0.3 µM, first compound 0.0949 µM) was 6.03% and the viability, T/C (second compound 0.3 µM, first compound 0.3 µM) was 4.48%.
